Test results as given in ChEMBL document CHEMBL5506043, “A β-Carboline Derivate PAD4 Inhibitor Reshapes Neutrophil Phenotype and Improves the Tumor Immune Microenvironment against Triple-Negative Breast Cancer” (J Med Chem, 2024).

How the values were obtained:
4T1 = assay: Antiproliferative activity against mouse 4T1 cells assessed as inhibition of cell growth incubated for 48 hrs by MTT assay; type: functional, cell-based; settings: 4T1, 48 h
[1] = target: Protein-arginine deiminase type-4 (Homo sapiens, UniProt Q9UM07); assay: Inhibition of PAD4 (unknown origin) using Nalpha-benzoyl-L-arginine ethyl ester as substrate preincubated for 60 mins followed by substrate addition and measured after 90 mins by colorimetric analysis
Chain of Protein-arginine deiminase type-4 (Q9UM07 whole entry): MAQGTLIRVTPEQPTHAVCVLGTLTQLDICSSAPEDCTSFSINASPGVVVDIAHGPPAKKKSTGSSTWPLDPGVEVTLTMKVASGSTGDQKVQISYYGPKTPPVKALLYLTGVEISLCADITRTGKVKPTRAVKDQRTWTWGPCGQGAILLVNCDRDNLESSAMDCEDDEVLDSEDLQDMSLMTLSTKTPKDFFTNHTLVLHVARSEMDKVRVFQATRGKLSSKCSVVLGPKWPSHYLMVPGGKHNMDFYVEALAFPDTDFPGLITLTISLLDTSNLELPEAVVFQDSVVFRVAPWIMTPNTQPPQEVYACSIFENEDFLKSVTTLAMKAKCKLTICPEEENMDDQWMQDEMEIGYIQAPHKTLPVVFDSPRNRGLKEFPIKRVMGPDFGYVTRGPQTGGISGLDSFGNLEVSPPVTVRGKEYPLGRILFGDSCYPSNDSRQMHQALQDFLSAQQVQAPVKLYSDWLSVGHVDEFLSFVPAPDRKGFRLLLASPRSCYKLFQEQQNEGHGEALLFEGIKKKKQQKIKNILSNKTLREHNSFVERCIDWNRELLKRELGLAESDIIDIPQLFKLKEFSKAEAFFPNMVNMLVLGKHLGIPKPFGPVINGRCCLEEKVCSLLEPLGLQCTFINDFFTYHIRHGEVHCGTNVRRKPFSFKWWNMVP

MDA-MB-468 = assay: Antiproliferative activity against human MDA-MB-468 cells assessed as inhibition of cell growth incubated for 48 hrs by MTT assay; type: functional, cell-based; settings: MDA-MB-468, 48 h
[2] = target: Protein-arginine deiminase type-2 (Homo sapiens, UniProt Q9Y2J8); assay: Inhibition of PAD2 (unknown origin) using Nalpha-benzoyl-L-arginine ethyl ester as substrate preincubated for 60 mins followed by substrate addition and measured after 90 mins by colorimetric analysis
Chain of Protein-arginine deiminase type-2 (Q9Y2J8 whole entry): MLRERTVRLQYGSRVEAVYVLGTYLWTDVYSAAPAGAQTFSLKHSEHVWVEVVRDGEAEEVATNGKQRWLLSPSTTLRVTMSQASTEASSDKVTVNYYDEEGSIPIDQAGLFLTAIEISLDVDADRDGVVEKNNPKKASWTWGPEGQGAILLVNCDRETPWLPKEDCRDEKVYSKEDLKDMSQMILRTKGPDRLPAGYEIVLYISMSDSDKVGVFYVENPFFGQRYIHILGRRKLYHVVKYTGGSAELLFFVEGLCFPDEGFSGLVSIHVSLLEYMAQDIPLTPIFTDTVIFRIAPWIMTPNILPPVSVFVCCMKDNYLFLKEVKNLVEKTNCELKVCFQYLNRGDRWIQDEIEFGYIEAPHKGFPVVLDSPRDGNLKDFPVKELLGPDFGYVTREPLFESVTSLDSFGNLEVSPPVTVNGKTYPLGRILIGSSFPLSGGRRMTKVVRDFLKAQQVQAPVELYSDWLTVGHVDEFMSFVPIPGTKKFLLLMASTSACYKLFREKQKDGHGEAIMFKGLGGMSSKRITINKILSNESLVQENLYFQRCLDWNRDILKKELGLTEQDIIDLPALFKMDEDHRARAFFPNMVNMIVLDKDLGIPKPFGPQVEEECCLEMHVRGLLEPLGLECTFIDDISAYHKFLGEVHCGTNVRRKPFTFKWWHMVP

[3] = Cytotoxicity against human MCF-10A cells assessed as inhibition of cell growth incubated for 48 hrs by MTT assay; type: toxicity, cell-based

Q: For N=C(CCl)NCCC[C@H](NC(=O)c1nc2ccccc2[nH]1)C(=O)NCc1ccccc1, which IC50 (4T1) is on record?
A: Its IC50 is 72.1 µM.

Q: What about the IC50 [1] of the same molecule?
A: The IC50 was 2.92 µM.

Q: And the IC50 (MDA-MB-468)?
A: The IC50 was 29.2 µM.

Q: What about the IC50 [2] of the same molecule?
A: The IC50 was 5.4 µM.

Q: What about the IC50 at 48 h [3] of the same molecule?
A: The IC50 at 48 h was 29.7 µM.

Q: Which results are given for N=C(CCl)NCCC[C@H](NC(=O)c1cc2c([nH]c3ccccc32)c(-c2ccc(F)cc2)n1)C(=O)NCc1ccccc1?
A: IC50 (4T1): 11 µM; IC50 [1]: 1.02 µM; IC50 (MDA-MB-468): 3.97 µM; IC50 [2]: 2.95 µM; IC50 at 48 h [3]: 7.07 µM

Q: For N=C(CCl)NCCC[C@H](NC(=O)c1cc2c([nH]c3ccccc32)c(-c2ccc3ccccc3c2)n1)C(=O)NCc1ccccc1, which IC50 (4T1) is on record?
A: Its IC50 is 5.8 µM.

Q: And the IC50 [1]?
A: The IC50 was 3.24 µM.

Q: What about the IC50 (MDA-MB-468) of the same molecule?
A: Its IC50 is 4.23 µM.

Q: What about the IC50 [2] of the same molecule?
A: The IC50 was greater than 10 µM.

Q: What about the IC50 at 48 h [3] of the same molecule?
A: Its IC50 at 48 h is 9.73 µM.

Q: With N=C(CCl)NCCC[C@H](NC(=O)c1cc2c([nH]c3ccccc32)c(-c2ccc(Cl)cc2)n1)C(=O)NCc1ccccc1 as the molecule, how does the IC50 (4T1) read?
A: The IC50 was 9.39 µM.

Q: What about the IC50 [1] of the same molecule?
A: The IC50 was 1.13 µM.

Q: And the IC50 (MDA-MB-468)?
A: The IC50 was 4.05 µM.

Q: And the IC50 [2]?
A: The IC50 was 4.05 µM.

Q: What about the IC50 at 48 h [3] of the same molecule?
A: Its IC50 at 48 h is 6.35 µM.

Q: What does the source list for CCC(CC)c1nc(C(=O)N[C@@H](CCCNC(=N)CCl)C(=O)NCc2ccccc2)cc2c1[nH]c1ccccc12?
A: IC50 (4T1): 5.66 µM; IC50 [1]: 1.1 µM; IC50 (MDA-MB-468): 3.72 µM; IC50 [2]: 1.36 µM; IC50 at 48 h [3]: 3.82 µM

Q: With N=C(CCl)NCCC[C@H](NC(=O)c1ccc2[nH]ccc2c1)C(=O)NCc1ccccc1 as the molecule, how does the IC50 (4T1) read?
A: The IC50 was 41.4 µM.

Q: What about the IC50 [1] of the same molecule?
A: The IC50 was 0.8 µM.

Q: What about the IC50 (MDA-MB-468) of the same molecule?
A: The IC50 was 61.3 µM.

Q: What about the IC50 [2] of the same molecule?
A: The IC50 was 1.43 µM.

Q: What about the IC50 at 48 h [3] of the same molecule?
A: The IC50 at 48 h was 63.6 µM.

Q: Which results are given for N=C(CCl)NCCC[C@H](NC(=O)c1cc2c([nH]c3ccccc32)c(-c2cccc([N+](=O)[O-])c2)n1)C(=O)NCc1ccccc1?
A: IC50 (4T1): > 100 µM; IC50 [1]: 2.03 µM; IC50 (MDA-MB-468): 13.8 µM; IC50 [2]: > 10 µM; IC50 at 48 h [3]: 7.22 µM

Q: Which results are given for N=C(CCl)NCCC[C@H](NC(=O)c1cc2c([nH]c3ccccc32)c(-c2nccc3ccccc23)n1)C(=O)NCc1ccccc1?
A: IC50 (4T1): 1.3 µM; IC50 [1]: 14 µM; IC50 (MDA-MB-468): 3.66 µM; IC50 [2]: > 10 µM; IC50 at 48 h [3]: 3.03 µM

Q: Which results are given for N=C(CCl)NCCC[C@H](NC(=O)c1c[nH]c2ccc(F)cc12)C(=O)NCc1ccccc1?
A: IC50 (4T1): 85.5 µM; IC50 [1]: 1.02 µM; IC50 (MDA-MB-468): 92 µM; IC50 [2]: 2.1 µM; IC50 at 48 h [3]: 72.7 µM

Q: For CC(C)Cc1nc(C(=O)N[C@@H](CCCNC(=N)CCl)C(=O)NCc2ccccc2)cc2c1[nH]c1ccccc12, which IC50 (4T1) is on record?
A: Its IC50 is 10.1 µM.

Q: And the IC50 [1]?
A: The IC50 was 0.71 µM.

Q: What about the IC50 (MDA-MB-468) of the same molecule?
A: Its IC50 is 4.42 µM.

Q: And the IC50 [2]?
A: The IC50 was 1.03 µM.

Q: And the IC50 at 48 h [3]?
A: The IC50 at 48 h was 5.16 µM.

Q: Which IC50 (4T1) does the source give for CCCCCc1nc(C(=O)N[C@@H](CCCNC(=N)CCl)C(=O)NCc2ccccc2)cc2c1[nH]c1ccccc12 here?
A: The IC50 was 8.07 µM.

Q: What about the IC50 [1] of the same molecule?
A: The IC50 was 1.75 µM.

Q: What about the IC50 (MDA-MB-468) of the same molecule?
A: The IC50 was 7.45 µM.

Q: What about the IC50 [2] of the same molecule?
A: The IC50 was 3.64 µM.

Q: And the IC50 at 48 h [3]?
A: The IC50 at 48 h was 8.01 µM.

Q: With N=C(CCl)NCCC[C@H](NC(=O)c1cc2c([nH]c3ccccc32)c(-c2nc3ccccc3[nH]2)n1)C(=O)NCc1ccccc1 as the molecule, how does the IC50 (4T1) read?
A: Its IC50 is 1.44 µM.

Q: And the IC50 [1]?
A: The IC50 was 9.3 µM.

Q: And the IC50 (MDA-MB-468)?
A: Its IC50 is 3.18 µM.

Q: What about the IC50 [2] of the same molecule?
A: The IC50 was greater than 10 µM.

Q: And the IC50 at 48 h [3]?
A: Its IC50 at 48 h is 3 µM.

Q: Which IC50 (4T1) does the source give for COc1cc(OC)c(-c2nc(C(=O)N[C@@H](CCCNC(=N)CCl)C(=O)NCc3ccccc3)cc3c2[nH]c2ccccc23)c(OC)c1 here?
A: Its IC50 is 16 µM.

Q: And the IC50 [1]?
A: Its IC50 is 2.15 µM.

Q: And the IC50 (MDA-MB-468)?
A: The IC50 was 6.18 µM.

Q: What about the IC50 [2] of the same molecule?
A: The IC50 was 1.63 µM.

Q: And the IC50 at 48 h [3]?
A: Its IC50 at 48 h is 16.9 µM.

Q: Which IC50 (4T1) does the source give for N=C(CCl)NCCC[C@H](NC(=O)c1cc2c([nH]c3ccccc32)c(-c2ccc3ccccc3n2)n1)C(=O)NCc1ccccc1 here?
A: Its IC50 is 0.88 µM.

Q: What about the IC50 [1] of the same molecule?
A: Its IC50 is 13.2 µM.

Q: What about the IC50 (MDA-MB-468) of the same molecule?
A: Its IC50 is 3.05 µM.

Q: What about the IC50 [2] of the same molecule?
A: Its IC50 is greater than 10 µM.

Q: And the IC50 at 48 h [3]?
A: The IC50 at 48 h was 2.77 µM.

Q: For COc1cccc(OC)c1-c1nc(C(=O)N[C@@H](CCCNC(=N)CCl)C(=O)NCc2ccccc2)cc2c1[nH]c1ccccc12, which IC50 (4T1) is on record?
A: The IC50 was 13.9 µM.

Q: And the IC50 [1]?
A: Its IC50 is 1.89 µM.

Q: And the IC50 (MDA-MB-468)?
A: The IC50 was 5.87 µM.

Q: What about the IC50 [2] of the same molecule?
A: Its IC50 is 1.51 µM.

Q: And the IC50 at 48 h [3]?
A: Its IC50 at 48 h is 14.7 µM.

Q: Which IC50 (4T1) does the source give for N=C(CCl)NCCC[C@H](NC(=O)c1cc2c([nH]c3ccccc32)c(-c2ccncc2)n1)C(=O)NCc1ccccc1 here?
A: Its IC50 is 45.2 µM.

Q: And the IC50 [1]?
A: Its IC50 is 3.43 µM.

Q: And the IC50 (MDA-MB-468)?
A: The IC50 was 85.3 µM.

Q: And the IC50 [2]?
A: Its IC50 is 4.65 µM.

Q: And the IC50 at 48 h [3]?
A: The IC50 at 48 h was 83.8 µM.

Q: Which results are given for N=C(CCl)NCCC[C@H](NC(=O)c1cc2c(cn1)[nH]c1ccccc12)C(=O)NCc1ccccc1?
A: IC50 (4T1): 23.5 µM; IC50 [1]: 1.76 µM; IC50 (MDA-MB-468): 14.3 µM; IC50 [2]: 2.73 µM; IC50 at 48 h [3]: 29.4 µM
